We go through five compounds from PMC2361671, “Preclinical pharmacokinetics and metabolism of a novel prototype DNA-PK inhibitor NU7026” (British Journal of Cancer, 2005).

Like-named read-outs stand apart in the source and are kept apart here.

A short description of data set [1]: Urinary excretion / metabolite profile in 24 h mouse urine. As to conditions: mice, NU7026 5 mg kg^−1 i.v., LC/MS ion current. Type of data set: in vivo, Female BALB/c mice. Here is the method: (§1) NU7026 was formulated in 10% DMSO and 5% Tween 20 in saline for i.p. and perorally (p.o.) administration at 20 and 50 mg kg^−1, respectively. For i.v. dosing at 5 mg kg^−1, NU7026 was formulated in 10% ethanol, 25% PEG 200 and 5% Tween 20 in saline. Control animals received the vehicle alone. Groups of three mice were injected per time point. Blood was collected by cardiac puncture following transient anaesthesia with halothane at 0.083, 0.25, 0.5, 1, 2, 4, 6, and 24 h post administration. Following centrifugation at 1500 g for 2 min to obtain plasma, samples were stored at −20°C until analysis. For urinary excretion studies, NU7026 was administered at 5 mg kg^−1 i.v. Urine was collected over 24 h in metabolic cages, and stored at −20°C until required.
For metabolism studies, LC/MS and LC/MS/MS were carried out on an LCQ ion trap instrument (ThermoFinnigan, UK). Separation was achieved using the same column as above. A linear gradient of 90% formic acid (0.1%) : 10% MeOH to 10% formic acid (0.1%) : 90% MeOH was run at 1 ml min^−1 from 0.5 to 6.5 min followed by 3.5 min isocratic. The capillary temperature was set to 200°C and the scan range from m/z 50 to m/z 850. For confirmation of metabolite structures, metabolites were spiked in control matrix and MS/MS fragmentation patterns and retention times were compared to those of biological samples.

Data set [2] is described as follows: Solubility (for constant infusion with osmotic minipumps). Type of data set: physicochemical. As to conditions: for dosing by constant infusion with osmotic minipumps.
In data set [3] the test system is CH1 human ovarian carcinoma cells. The experiment in a line: Clonogenic survival assay / radiosensitisation. In kind it is cell-based. As to conditions: for cell count, % of the radiation control group: P<0.01. Here is the method: These experiments were not designed as classical radiosensitisation experiments, that is, radiation dose finding study, but rather as experiments to investigate the minimum drug exposure required to observe radiosensitisation. CH1 human ovarian carcinoma cells were chosen as as a model because of their relative radiosensitivity (Kelland, personnal communication). They were grown as monolayers in Dubelcco's modified Eagle's medium (Invitrogen, Paisley, Scotland) augmented with 10% heat-inactivated fetal calf serum, 2 mM L-glutamine, minimal essential medium nonessential amino acid (Invitrogen) and 0.5 μg ml^−1 hydrocortisone in a 6.5% CO2/93.5% air atmosphere.
Cells were seeded at 1000 per 10 ml into […] flasks and left to attach overnight. Each group consisted of triplicate flasks. Following the addition of NU7026 (10 μM) or dimethyl sulphoxide (DMSO) solvent control for 24 h (final concentration of DMSO was 0.5%), cells were irradiated with a cobalt source (^60Co) for 3 min and 9 s at a distance of 40 cm to give a total dose of 2 Gy, or 2 min and 49 s at a distance of 30 cm to give a final dose of 3 Gy, or 6 min and 18 s at a distance of 40 cm to give a total dose of 4 Gy. Control cells were not treated with either drug or ionising radiation. Group 2 cells were treated with NU7026 only and Group 3 cells were irradiated only. Groups 4–7 were treated with NU7026 and irradiated with 2, 3 or 4 Gy. The drug was washed off by aspiration of the medium and rinsing with 10 mM phosphate-buffered saline (PBS) 2 h (Group 4), 4 h (Group 5), 6 h (Group 6) and 24 h (Group 7) after exposure. Following the addition of drug-free medium, cells were left to grow until colonies were visible. Colonies were then counted after 9 days and expressed as a percentage of controls. The doubling time of the cells was approximately 16 h.

Data set [4] deals with ataxia telangiectasia mutated kinase (ATM). Also noted: method as in Veuger et al, 2003, 2004; Griffin et al 2005. As to conditions: ref Veuger et al, 2003, 2004; Griffin et al 2005; cited from earlier work.
The test system of data set [5] is ataxia telangiectasia and rad 3-related kinases (ATR). Also on record: method as in Veuger et al, 2003, 2004; Griffin et al 2005. As to conditions: ref Veuger et al, 2003, 2004; Griffin et al 2005; cited from earlier work.
A short description of data set [6]: Plasma pharmacokinetics in mice (LC/MS/MS). In kind it is in vivo, Female BALB/c mice. On the procedure: as §1
Samples were analysed by liquid chromatography tandem mass spectrometry (LC/MS/MS). Chromatography was performed using a 50 × 4.6 mm ID 5 μm zwitterionic ABZ+ column (Supelco, Poole, Dorset, UK) and a gradient of 20% methanol (MeOH) in formic acid (0.1%) to 100% MeOH over 3 min, followed by an isocratic period at a flow rate of 0.6 ml min^−1. The total run time was 7 min. Detection by multiple reaction monitoring was performed on a TSQ700 triple quadrupole mass spectrometer equipped with an electrospray source and operated in positive ion mode (Thermoquest Ltd, Hemel Hempstead, Herts, UK). The heated capillary was maintained at 280°C and at a voltage of 4.5 kV. The following transitions were monitored: m/z (mass to charge ratio) 282.4 → m/z 171 for NU7026; m/z 262.3 → m/z 121 for NU7031; m/z 300 → m/z 256 for NU7119; m/z 300 → m/z 238 for NU7200. Calibration standards (20, 200, 500, 1000, 2000, 5000, 10 000, 20 000 and 50 000 nM) were prepared in blank mouse plasma. Following the addition of internal standard (30 μl of 2 μM solution of NU7031), plasma proteins were precipitated with 300 μl MeOH. Samples were then centrifuged and 20 μl of supernatant was injected onto the column. Peak area was plotted against concentration and unknown concentrations derived from the linear plot (analysed with Prism 2.01, Graphpad Software, San Diego, CA, USA).
Pharmacokinetic parameters were evaluated by noncompartmental analysis (model 200 for p.o. and i.p. administration and 201 for i.v. administration) using WinNonlin® Professional Version 3.2 (Pharsight Corporation, Mountain View, CA, USA). For simulation studies, parameters were derived from compartmental analysis.

The target in data set [7] is phosphoinositide 3-kinase. Also noted: method as in Veuger et al, 2003, 2004; Griffin et al 2005. As to conditions: ref Veuger et al, 2003, 2004; Griffin et al 2005; cited from earlier work.
The next data set addresses DNA-PK (Homo sapiens, UniProt P78527). The experiment in a line: DNA-PK inhibition. In kind it is biochemical. As to conditions: stated in results, no method or reference given; read-out: IC50 inhibiting DNA-PK.
[8] abbreviates: Table 2: parent and metabolites in plasma after NU7026 at 5 mg kg^−1 i.v. to mice.
[9] abbreviates: Table 3: each compound at 20 mg kg^−1 i.p. to mice, plasma.
Setting [10] is: female, BALB/c, mouse, plasma, ip, 20 mg/kg, Table 3: each compound at 20 mg kg^−1 i.p. to mice, plasma.

As to `O=c1cc(N2CCOC(O)C2)oc2c1ccc1ccccc12` (centres unmarked) [M1], the “level in 24 h urine samples” value in data set [1] is listed as “significant amounts”.

As usually defined, the IC50 is the concentration that inhibits the measured activity by half. As usually defined, the half-life is the time needed for the level to fall by half in the phase considered. The bioavailability is dose-corrected exposure relative to a reference, in per cent. The low end stands for poor availability, the high end for good availability. As a reminder, the Cmax is the peak of the concentration-time curve. Regarding `O=c1cc(N2CCOCC2)oc2c1ccc1ccccc12` [NU7026, 2-(morpholin-4-yl)-benzo[H]chromen-4-one], the solubility result in data set [2] was “insufficient solubility”. The “cell survival, % of the solvent-treated group” value amounted to 15% in data set [3] (10 μM NU7026 combined with 2 Gy radiation), 9% in data set [3] (10 μM NU7026 combined with 3 Gy radiation) and 1% in data set [3] (10 μM NU7026 combined with 4 Gy radiation). Besides, the “radiosensitisation vs radiation alone” value in data set [3] (2 h treatment with 10 μM NU7026 + 3 Gy, t test P>0.1) is reported as “no significant difference”. Further, the “cell count, % of the radiation control group” value in data set [3] (4 h exposure to 10 μM NU7026 + 3 Gy) turned out to be 61%; in data set [3] (6 h exposure to 10 μM NU7026 + 3 Gy), 47%; in data set [3] (24 h exposure to 10 μM NU7026 + 3 Gy), 13%. The activity at 10 µM in data set [3] (Homo sapiens, Ovarian carcinoma cell, NU7026 alone, 10 μM for 24 h, no radiation, read-out: surviving fraction, % of control cells) amounted to 91 ± 13%. Moreover, the IC50 in data set [4] was above 100 µM; in data set [5] it was above 100 µM; in data set [7], 13 µM. Further, the AUC last in data set [6] (setting [8]) is 3616 nmol·L/h; in data set [6] (mice, 5 mg kg^−1 i.v., plasma) it was 3616 nM l h^−1; in data set [6] (mice, 20 mg kg^−1 i.p., plasma), 2940 nM l h^−1; in data set [6] (mice, 50 mg kg^−1 p.o., plasma), 5191 nM l h^−1. Moreover, the Cl obs. was 0.44 L/h in data set [6] (setting [9]); 0.44 L/h in data set [6] (mice, 20 mg kg^−1 i.p., plasma); 0.63 L/h in data set [6] (mice, 50 mg kg^−1 p.o., plasma). Also, the Vd was determined as 0.55 L in data set [6] (setting [9]); 0.16 L in data set [6] (female, BALB/c, mouse, plasma, iv, mice, 5 mg kg^−1 i.v., based on the elimination phase, read-out: Vd); 0.55 L in data set [6] (mice, 20 mg kg^−1 i.p., based on the elimination phase); 1.34 L in data set [6] (mice, 50 mg kg^−1 p.o., based on the elimination phase). Moreover, the t1/2 in data set [6] (setting [9]) is 52.2 min. Also, the half-life in data set [6] (female, BALB/c, mouse, ip, mice, 20 mg kg^−1 i.p., plasma) is 52.2 min; in data set [6] (female, BALB/c, mouse, iv, mice, 5 mg kg^−1 i.v., plasma), 73.2 min; in data set [6] (female, BALB/c, mouse, po, mice, 50 mg kg^−1 p.o., plasma), 88.8 min. For the same compound, the Tmax is 4.98 min in data set [6] (female, BALB/c, mouse, ip, mice, 20 mg kg^−1 i.p., plasma, read-out: Tmax); 0 min in data set [6] (female, BALB/c, mouse, iv, mice, 5 mg kg^−1 i.v., plasma, read-out: Tmax); 60 min in data set [6] (female, BALB/c, mouse, mice, oral 50 mg kg^−1, plasma, read-out: time of maximum concentration after administration). The bioavailability in data set [6] (female, BALB/c, mouse, plasma, intraperitoneal, mice, i.p. 20 mg kg^−1, assuming linear i.v. pharmacokinetics) is 20%. For the same compound, the Cmax in data set [6] (setting [10]) was 5.12 µM; in data set [6] (female, BALB/c, mouse, plasma, ip, 20 mg/kg, mice, 20 mg kg^−1 i.p., noncompartmental) it was 7.36 µM; in data set [6] (female, BALB/c, mouse, plasma, iv, 5 mg/kg, mice, 5 mg kg^−1 i.v., noncompartmental), 5.12 µM; in data set [6] (female, BALB/c, mouse, plasma, po, 50 mg/kg, mice, 50 mg kg^−1 p.o., noncompartmental) it was 2.23 µM; in data set [6] (female, BALB/c, mouse, plasma, po, 50 mg/kg, mice, p.o. 50 mg kg^−1 (discussion)), below 2.5 µM. Besides, the clearance was 1.5 mL/min in data set [6] (female, BALB/c, mouse, plasma, iv, 5 mg/kg, mice, 5 mg kg^−1 i.v., plasma, read-out: Cl obs. (converted)) and 1.8 mL/min in data set [6] (female, BALB/c, mouse, plasma, iv, 5 mg/kg, mice, 5 mg kg^−1 intravenous (abstract), read-out: plasma clearance (converted)). In addition, in data set [6] (mice, i.v. 5 mg kg^−1), the “plasma level at 4 h post administration” value is listed as “undetectable”. Further, in data set [6] (mice, i.v. administration, plasma), the “time compound levels were above 10 μM” value is “less than 1 h”. The compound further displayed a maximum concentration in data set [6] (mice, oral 50 mg kg^−1, plasma) of 2.2 µM. In addition, in data set [6] (mice, p.o. 50 mg kg^−1 (abstract prints 20 mg kg^−1), based on linear i.v. pharmacokinetics), the oral bioavailability came to 15%.

In data set [6] (setting [9]), `C[C@@H]1CN(c2cc(=O)n3ccc4ccccc4c3n2)C[C@H](C)O1` [NU7107, 2-((2S,6R)-2,6-dimethylmorpholin-4-yl)-pyrimido[2,1-a]isoquinolin-4-one] came in with an AUC last of 12165 nmol·L/h, a Cl obs. of 0.11 L/h and a Vd of 0.12 L. Also, the half-life in data set [6] (female, BALB/c, mouse, ip, Table 3: each compound at 20 mg kg^−1 i.p. to mice, plasma) was 47.4 min. The Tmax in data set [6] (female, BALB/c, mouse, ip, Table 3: each compound at 20 mg kg^−1 i.p. to mice, plasma, read-out: Tmax) was 15 min. The compound also showed a Cmax in data set [6] (setting [10]) of 10.4 µM. In data set [6] (mice, 20 mg kg^−1 i.p.), the “decrease in plasma clearance compared with NU7026” value is on record as “four-fold” and the “plasma level 6 h post administration” value is “still detectable”. The IC50 at DNA-PK was above 10 µM.

`O=c1cc(N(CCO)CCO)oc2c1ccc1ccccc12` [NU7199, 2-[bis-(2-hydroxyethyl)-amino]-benzo[H]chromen-4-one]: the “level in 24 h urine samples” value in data set [1] was “significant amounts”. The AUC last in data set [6] (setting [8]) is 414 nmol·L/h.

With `O=c1cc(NCCOCCO)oc2c1ccc1ccccc12` [NU7200, 2-[2-(2-hydroxyethoxy)-ethylamino]-benzo[H]chromen-4-one], the “level in 24 h urine samples” value in data set [1] is listed as “significant amounts”. Besides, the AUC last in data set [6] (setting [8]) came out at 143 nmol·L/h.
